In US9981928B2, “Aryl sulfide derivatives and aryl sulfoxide derivatives as acaricides and insecticides” (BAYER CROPSCIENCE AKTIENGESELLSCHAFT, priority 2013, dated 2018):
Where two headings read alike, the source gives them in different places.

Key:
[1] = test system: greenhouse red spider mite (Tetranychus urticae); assay: Tetranychus urticae spray test, OP-resistant (TETRUR), bean leaf disks; format: in vivo; conditions: bean leaf disks, after 6 days
Procedure: Tetranychus urticae—Spray Test, OP-Resistant (TETRUR)
Solvent: 78.0 parts by weight of acetone
• 1.5 parts by weight of dimethylformamide Emulsifier: alkylaryl polyglycol ether
To produce a suitable preparation of active compound, 1 part by weight of active compound is dissolved using the stated parts by weight of solvent and made up with water containing an emulsifier concentration of 1000 ppm until the desired concentration is attained. To produce further test concentrations, the preparation is diluted with emulsifier-containing water.
disks of bean leaves (Phaseolus vulgaris) infested with all stages of the greenhouse red spider mite (Tetranychus urticae) are sprayed with an active compound preparation of the desired concentration.
After 6 days, the efficacy in % is determined. 100% means that all the spider mites have been killed; 0% means that none of the spider mites have been killed.

[2] = log P determination by HPLC on reversed-phase columns (C 18), analogously to OECD Guideline 117; format: physicochemical; conditions: for logP (HCOOH): LC-MS in the acidic range, pH 2.7, 0.1% aqueous formic acid / acetonitrile; for logP (HCOOH) / logP (neutral): HPLC reversed-phase C 18; for logP (neutral): LC-MS in the neutral range, pH 7.8, 0.001 molar aqueous ammonium hydrogencarbonate / acetonitrile; for chromatographic logP: reversed-phase C18 HPLC column
Method in brief: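 Reversed-phase C18 HPLC per OECD 117 with LC-MS detection and a linear 10→95% acetonitrile gradient. Acidic log P run at pH 2.7 with 0.1% formic acid in both eluents. Neutral log P run at pH 7.8 with 0.001 M aqueous ammonium hydrogencarbonate.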

[3] = Tetranychus urticae, foliar, 144 h, application rate 500 g/ha, read-out: efficacy in %
[4] = acidic range, pH 2.7, 0.1% aqueous formic acid and acetonitrile, read-out: log P[a] / log P(HCOOH)
[5] = neutral range, pH 7.8, 0.001 molar aqueous ammonium hydrogencarbonate and acetonitrile, read-out: log P[b] / log P(neutral)

Row | SMILES | efficacy in % ([1]; application rate 500 g/ha) [%] | logP (HCOOH) [2] | logP (neutral) [2] | chromatographic logP [2, 4] | further results
1 | CCn1c(=O)n(C)c(=O)n1-c1cc([S+]([O-])CC(F)(F)F)c(C)cc1F (centres unmarked) [Example 98] | 90 | 1.93 | 1.91 | – | –
2 | CCn1c(=O)n(C(C)(C)C)c(=O)n1-c1cc(SCC(F)(F)F)c(C)cc1F [Example 99] | 90 | 4.21 | 4.16 | – | –
3 | Cc1cc(F)c(N2C(=O)C(=O)N(CC(F)F)C2=O)cc1SCC(F)(F)F [Example 101, 1-(2,2-Difluoroethyl)-3-[2-fluoro-4-methyl-5-[(2,2,2-trifluoroethyl)sulfanyl]phenyl]imidazolidine-2,4,5-trione] | – | – | – | 3.22 | pest or weed control at 500 g/ha [1, 3]: 100%; chromatographic logP [2, 5]: 1.73
4 | Cc1cc(F)c(N2CCOC2=O)cc1[S+]([O-])CC(F)(F)F (centres unmarked) [Example 105, 3-[2-Fluoro-4-methyl-5-(2,2,2-trifluoroethylsulfinyl)phenyl]oxazolidin-2-one] | – | – | – | 1.64 | pest or weed control at 500 g/ha [1, 3]: 90%
5 | Cc1cc(F)c(N2C(=O)OCC2C)cc1SCC(F)(F)F (centres unmarked) [Example 108, 3-[2-Fluoro-4-methyl-5-(2,2,2-trifluoroethylsulfanyl)phenyl]-4-methyloxazolidin-2-one] | – | – | – | 2.92 | pest or weed control at 500 g/ha [1, 3]: 90%
6 | Cc1cc(F)c(N2CC(C)OC2=O)cc1[S+]([O-])CC(F)(F)F (centres unmarked) [Example 109, 3-[2-Fluoro-4-methyl-5-(2,2,2-trifluoroethylsulfinyl)phenyl]-5-methyloxazolidin-2-one] | – | – | – | 1.93 | pest or weed control at 500 g/ha [1, 3]: 100%; chromatographic logP [2, 5]: 1.89
7 | Cc1cc(F)c(N2C(=O)OC(C)(C)C2=O)cc1[S+]([O-])CC(F)(F)F (centres unmarked) [Example 110, 3-[2-Fluoro-4-methyl-5-(2,2,2-trifluoroethylsulfinyl)phenyl]-5,5-dimethyloxazolidine-2,4-dione] | – | – | – | 2.38 | pest or weed control at 100 g/ha ([1]; Tetranychus urticae, foliar, 144 h, application rate 100 g/ha, read-out: efficacy in %): 100%
8 | Cc1cc(F)c(N2C(=O)OC(C)(C)C2=O)cc1SCC(F)(F)F [Example 111, 3-[2-Fluoro-4-methyl-5-(2,2,2-trifluoroethylsulfanyl)phenyl]-5,5-dimethyloxazolidine-2,4-dione] | – | – | – | 3.35 | pest or weed control at 500 g/ha [1, 3]: 90%
9 | Cc1cc(C)c(N2C(=O)CSC2=NC2CC2)cc1SCC(F)(F)F [Example 112] | – | 3.65 | 3.65 | – | efficacy in % ([1]; application rate 100 g/ha): 100%
10 | Cc1cc(F)c(N2C(=O)CSC2=NCC(C)(C)C)cc1SCC(F)(F)F [Example 113] | 100 | 4.84 | 4.73 | – | –
11 | Cc1cc(F)c(-n2c(=O)n(C)n(C)c2=O)cc1SCC(F)(F)F [Example 116, 4-{2-Fluoro-4-methyl-5-[(2,2,2-trifluoroethyl)sulfanyl]phenyl}-1,2-dimethyl-1,2,4-triazolidine-3,5-dione] | – | – | – | 2.4 | pest or weed control at 500 g/ha [1, 3]: 100%; chromatographic logP [2, 5]: 2.39
12 | Cc1cc(F)c(-n2c(=O)n(C)n(C)c2=O)cc1[S+]([O-])CC(F)(F)F (centres unmarked) [Example 117, 4-{2-Fluoro-4-methyl-5-[(2,2,2-trifluoroethyl)sulfinyl]phenyl}-1,2-dimethyl-1,2,4-triazolidine-3,5-dione] | – | – | – | 1.54 | pest or weed control at 500 g/ha [1, 3]: 90%; chromatographic logP [2, 5]: 1.5
13 | CCn1c(=O)n(-c2cc(SCC(F)(F)F)c(C)cc2F)c(=O)n1CC [Example 118, 1,2-Diethyl-4-{2-fluoro-4-methyl-5-[(2,2,2-trifluoroethyl)sulfanyl]phenyl}-1,2,4-triazolidine-3,5-dione] | – | – | – | 3.03 | pest or weed control at 500 g/ha [1, 3]: 100%
14 | C#CCn1c(=O)n(-c2cc(SCC(F)(F)F)c(C)cc2F)c(=O)n1C [Example 121] | 100 | 2.81 | – | – | –
15 | CCn1c(=O)n(-c2cc(SCC(F)(F)F)c(C)cc2F)c(=O)n1C [Example 122, 1-Ethyl-4-{2-fluoro-4-methyl-5-[(2,2,2-trifluoroethyl)sulfanyl]phenyl}-2-methyl-1,2,4-triazolidine-3,5-dione] | – | – | – | 2.71 | pest or weed control at 500 g/ha [1, 3]: 90%
16 | C=CCn1c(=O)n(-c2cc(SCC(F)(F)F)c(C)cc2F)c(=O)n1C [Example 125] | 100 | 2.91 | – | – | –

Row | SMILES | efficacy in % ([1]; application rate 500 g/ha) [%] | logP (HCOOH) [2] | logP (neutral) [2] | chromatographic logP [2, 4] | further results
17 | Cc1cc(F)c(-n2c(=O)n(C)n(CC3CC3)c2=O)cc1SCC(F)(F)F [Example 126] | 90 | 3.15 | – | – | –
18 | Cc1cc(F)c(-n2c(=O)n(C3CC3)c(=O)n2CC(F)(F)F)cc1SCC(F)(F)F [Example 129] | 100 | 3.48 | 3.43 | – | –
19 | C=CCn1c(=O)n(C2CC2)c(=O)n1-c1cc(SCC(F)(F)F)c(C)cc1F [Example 130] | 100 | 3.31 | 3.28 | – | –
20 | CCn1c(=O)n(C)n(-c2ccc(C)c(SCC(F)(F)F)c2)c1=O [Example 131] | 90 | 3.00 | 2.97 | – | –
21 | Cc1ccc(-n2c(=O)n(C(C)C)c(=O)n2C)cc1SCC(F)(F)F [Example 132] | 100 | 3.42 | 3.38 | – | –
22 | CCn1c(=O)n(C(C)C)c(=O)n1-c1ccc(C)c(SCC(F)(F)F)c1 [Example 133] | 100 | 3.77 | 3.73 | – | –
23 | CCn1c(=O)n(C(C)(C)C)c(=O)n1-c1ccc(C)c(SCC(F)(F)F)c1 [Example 134] | 100 | 4.32 | 4.27 | – | –
24 | Cc1ccc(-n2c(=O)n(C(C)(C)C)c(=O)n2C(C)C)cc1SCC(F)(F)F [Example 135] | 90 | 4.77 | 4.70 | – | –
25 | Cc1cc(F)c(-n2c(=O)n(C3CCCCC3)c(=O)n2C)cc1SCC(F)(F)F [Example 136] | 90 | 4.17 | 4.13 | – | –
26 | CCn1c(=O)n(C(C)(C)C)c(=O)n1-c1cc([S+]([O-])CC(F)(F)F)c(C)cc1F (centres unmarked) [Example 137] | 90 | 3.02 | 2.96 | – | –
27 | CCn1c(=O)n(CC)n(-c2ccc(C)c([S+]([O-])CC(F)(F)F)c2)c1=O (centres unmarked) [Example 138] | 90 | 2.20 | 2.19 | – | –
28 | Cc1ccc(-n2c(=O)n(C(C)(C)C)c(=O)n2C)cc1[S+]([O-])CC(F)(F)F (centres unmarked) [Example 139] | 100 | 2.71 | 2.70 | – | –
29 | CCn1c(=O)n(-c2ccc(C)c([S+]([O-])CC(F)(F)F)c2)n(C(C)C)c1=O (centres unmarked) [Example 140] | 90 | 2.56 | 2.54 | – | –
30 | CCn1c(=O)n(-c2cc(SCC(F)(F)F)c(C)cc2F)n(C(C)(C)C)c1=O [Example 142] | 100 | 4.19 | 4.13 | – | –
31 | Cc1cc(F)c(-n2c(=O)n(C(C)C)c(=O)n2C(C)(C)C)cc1SCC(F)(F)F [Example 143] | 100 | – | 4.56 | – | –
32 | CCn1c(=O)n(CC(F)(F)F)n(-c2cc(SCC(F)(F)F)c(C)cc2F)c1=O [Example 145] | 100 | 3.54 | 3.49 | – | –
